Tests used:
UISO MEL-1 cells = experiment: In vivo activity against MEL-1 tumors in athymic mice; conditions: 5, 50 or 250 mg/kg/dose IP betulinic acid/PVP every fourth day, six doses
Protocol: In particular, with respect to FIGS. 4 and 5, four week old athymic mice were injected subcutaneously in the right flank with 5.0×10^8 UISO MEL-1 cells. Drug treatment was initiated on the day following tumor cell injection and continued every fourth day for a total of six doses. Four control animals received 0.5 ml intraperitoneal (IP) saline, while treated animals (4 per group) received 5, 50 or 250 mg/kg/dose IP betulinic acid/PVP in dd H2O. The mice were weighed, and tumors were measured with a micrometer every third day throughout the study. Treated animals were sacrificed and autopsied on day 41, when the mean tumor volume in the control mice was approximately 0.5 cm^3. The control mice then received six doses of 50 mg/kg every fourth day beginning day 41 and were sacrificed and autopsied on day 71.

[1] = 200 and 400 mg/kg doses; cited from earlier work
MEL-2 cells = experiment: Formation of the 50 Kbp DNA fragment (apoptosis), field-inversion gel electrophoresis; type: cell-based, human
From the text: Therefore, an important feature of the present invention is a method of analyzing and quantifying the formation of the 50 Kbp fragment as a biomarker for induction of apoptosis in human cancer cell lines. This method comprises treatment of cells in culture, followed by analysis of the total cellular DNA content using agarose field-inversion gel electrophoresis. Under these conditions, the 50 Kbp fragment is resolved as a diffuse band. The fraction of the total cellular DNA represented by the 50 Kbp fragment is determined by densitometry on the contour of this band.
To investigate the ability of betulinic acid to induce apoptosis, the above-described method was adapted for use with the MEL-2 cell line. […]
With further respect to FIG. 3A, cultured MEL-2 cells (10^6 cells inoculated per 25 cm^2 flask) were treated with […] betulinic acid (200 μg/ml DMSO, diluted 1:100 in media) for 24, 32, 48, 56 and 72 hours. […] Samples were analyzed on a 1% agarose gel in a Hoefer HE100 SuperSub apparatus cooled to 10° C. by a circulating water bath. […]
Electrophoresis was performed at 172 volts for a total of 18 hours using two sequential field inversion programs with pulse ramping. The DNA/ethidium bromide fluorescence was excited on a UV transilluminator and photographed using Polaroid type 55 P/N film. The negative was analyzed using a PDI scanning densitometer and Quantity One software. […]

MEL-6 melanoma cell line = experiment: Cytotoxicity of betulinic acid derivatives; type: cell-based, human; conditions: Tables 2-6
Protocol: (§1) The plates were incubated for three days. […] Dose response studies were performed to generate ED50 values.

LOX melanoma cell line = experiment: Cytotoxicity of betulinic acid derivatives; type: cell-based, human; conditions: Tables 2-6
Protocol: as §1

MEL-8 melanoma cell line = experiment: Cytotoxicity of betulinic acid derivatives; type: cell-based, human; conditions: Tables 2-6
Protocol: as §1

[2] = tested on: MALE-3M melanoma cell line; experiment: Cytotoxicity of betulinic acid derivatives; type: cell-based, human; conditions: Tables 2-6
Protocol: as §1

Structure (SMILES): C=C(C)[C@@H]1CC[C@]2(C(=O)O)CC[C@]3(C)[C@H](CC[C@@H]4[C@@]5(C)CC[C@H](O)C(C)(C)[C@@H]5CC[C@]43C)[C@@H]12 [Compound 10, 3β-hydroxy-lup-20(29)-ene-28-oic acid]
- activity against MEL-1 tumors (FIGS. 4 and 5) (UISO MEL-1 cells): showed activity against MEL-1 cells
- activity in Hippocratic screen [1]: inactive
- treatment period at maximum induction of the 50 Kbp fragment (MEL-2 cells; 2 μg/ml betulinic acid (FIG. 3A)): 56 h
- ED50 of the apoptotic response (50 Kbp fragment) (MEL-2 cells; MEL-2 cells treated for 56 hours (FIG. 3B)): about 1.5 μg/ml
- ED50 (Std. Dev.) MEL-6 (MEL-6 melanoma cell line): 13.2 (1.5) μg/mL
- ED50 (Std. Dev.) LOX (LOX melanoma cell line): >20 µg/mL
- ED50 (Std. Dev.) MEL-8 (MEL-8 melanoma cell line): 1.0 (0.3) μg/mL
- ED50 (Std. Dev.) MALE-3M [2]: 17.6 (0.5) μg/mL
